In US10619138B2, “Herbicide-resistant hydroxyphenylpyruvate dioxygenases” (BASF SE, priority 2013, dated 2020):
Several values for one entry are separate records, joined by “and”; a condition that tells them apart may be missing. Identical values can stand only once.

Tests used:
[1] = tested on: transgenic Arabidopsis plants expressing Scenedesmus HPPD; test: Greenhouse herbicide spray test, transgenic plants (T2); assay type: in vivo, Arabidopsis thaliana; settings: for Injury evaluation, scale 0-100% / tolerance of transgenic plants (in words): two weeks after treatment; for tolerance of transgenic plants (in words): doses 1.56-50 g/ha
Excerpt: (§1) Additionally, T1 and T2 transgenic Arabidopsis plants can be tested for improved tolerance to HPPD-inhibiting herbicides in greenhouse studies. Herbicide injury scoring is done 2-3 weeks after treatment and is rated on a scale of 0 to 100%, 0% being no injury and 100% being complete death.
(§2) Transgenic Arabidopsis plants were sprayed with a range of doses from 1.56-50 g/ha with HPPD-inhibiting herbicides and injury evaluations were taken two weeks after treatment. […] As depicted in Table 6, control plants are severely injured by all doses of herbicide applied, with at least 70% of leaf material being damaged at the lowest application rate. For example, transgenic plants expressing Scenedesmus HPPD have an excellent tolerance to all herbidcides tested. […] After application of Inhibitor 2, only 18% of leaf material was damaged resulting in a 5-fold tolerance compared to the WT at the highest application rate.

[2] = tested on: transgenic Arabidopsis plants expressing Acidobacterium HPPD; test: as above; assay type: in vivo, Arabidopsis thaliana; settings: for Injury evaluation, scale 0-100% / tolerance of transgenic plants (in words): two weeks after treatment; for tolerance of transgenic plants (in words): doses 1.56-50 g/ha
Excerpt: as §1, §2

[3] = tested on: transgenic Arabidopsis plants expressing Algoriphagus HPPD; test: as above; assay type: in vivo, Arabidopsis thaliana; settings: two weeks after treatment
Excerpt: as §1, §2

[4] = tested on: Microscilla HPPD (SEQ ID NO: 20); test: In vitro HPPD activity assay, tolerance index; assay type: biochemical, Microscilla marina; settings: normalized on Arabidopsis wild-type HPPD
Experimental: (§3) The activity assay for HPPD is based on the analysis of homogentisic acid by reversed phase HPLC.
(§4) The assay mixture can contain 150 mM potassium phosphate buffer pH 7.0, 50 mM L-ascorbic acid, 100 μM Catalase (Sigma-Aldrich), 1 μM FeSO4 and 0.2 units of purified HPPD enzyme in a total volume of 505 μl. 1 unit is defined as the amount of enzyme that is required to produce 1 nmol of HGA per minute at 20° C.
(§5) The reaction is allowed to proceed for 45 min at room temperature. The reaction is stopped by the addition of 50 μl of 4.5 M phosphoric acid. The sample is filtered using a […] pore size PVDF filtration device.
(§6) 5 μl of the cleared sample is analyzed on an UPLC HSS T3 column (particle size 1.8 μm, dimensions 2.1×50 mm; Waters) by isocratic elution using 90% 20 mM NaH2PO4 pH 2.2, 10% methanol (v/v).
(§7) HGA is detected electrochemically at 750 mV (mode: DC; polarity: positive) and quantified by integrating peak areas (Empower software; Waters).
(§8) Inhibitors are dissolved in DMSO (dimethylsulfoxide) to a concentration of 0.5 mM. From this stock solution serial five-fold dilutions are prepared in DMSO, which are used in the assay. The respective inhibitor solution accounts for 1% of the assay volume. Thus, final inhibitor concentrations range from 5 μM to 320 pM, respectively. Activities are normalized by setting the uninhibited enzyme activity to 100%. IC50 values are calculated using non-linear regression.
(§9) Using methods which are described in the above examples or well known in the art, purified, recombinant wildtype HPPD enzymes are characterized with respect to their kinetic properties and sensitivity towards HPPD inhibiting herbicides. Apparent michaelis constants (Km) and maximal reaction velocities (Vmax) are calculated by non-linear regression with the software GraphPad Prism 5 (GraphPad Software, La Jolla, USA) using a substrate inhibition model. […] Weighted means (by standard error) of Km and IC50 values are calculated from at least three independent experiments. The Cheng-Prusoff equation for competitive inhibition (Cheng, Y. C.; Prusoff, W. H. Biochem Pharmacol 1973, 22, 3099-3108) is used to calculate dissociation constants (Ki).
(§10) Field performance of the HPPD enzyme, which is used as a herbicide tolerance trait may depend not only on its lack of sensitivity towards HPPD inhibiting herbicides but also on its activity. To assess the potential performance of a herbicide tolerance trait a tolerance index (TI) is calculated using the following formula: […]
(§11) Easy comparison and ranking of each trait is enabled by normalizing tolerance indexes on Arabidopsis wild-type HPPD.

[5] = tested on: Pontibacter HPPD (SEQ ID NO: 16); test: In vitro HPPD activity assay, tolerance index; assay type: biochemical, Pontibacter sp.; settings: normalized on Arabidopsis wild-type HPPD
Experimental: as §3, §4, §5, §6, §7, §8, §9, §10, §11

[6] = tested on: Acidobacterium HPPD (SEQ ID NO: 30); test: In vitro HPPD activity assay, tolerance index; assay type: biochemical, Acidobacterium capsulatum; settings: normalized on Arabidopsis wild-type HPPD
Experimental: as §3, §4, §5, §6, §7, §8, §9, §10, §11

[7] = tested on: Mucilaginibacter HPPD (SEQ ID NO: 28); test: In vitro HPPD activity assay, tolerance index; assay type: biochemical, Mucilaginibacter paludis; settings: normalized on Arabidopsis wild-type HPPD
Experimental: as §3, §4, §5, §6, §7, §8, §9, §10, §11

[8] = tested on: untransformed wild-type (WT) Arabidopsis plants; test: Greenhouse herbicide spray test, wild-type plants; assay type: in vivo, Arabidopsis thaliana; settings: two weeks after treatment, mean of three plants
Excerpt: as §1, §2

[9] = Scenedesmus HPPD Event 1, 3.125 g/ha
[10] = Scenedesmus HPPD Event 1, 6.25 g/ha
[11] = Scenedesmus HPPD Event 2, 3.125 g/ha
[12] = Scenedesmus HPPD Event 2, 6.25 g/ha
[13] = Acidobacterium HPPD Event 1, 3.125 g/ha
[14] = Acidobacterium HPPD Event 1, 6.25 g/ha
[15] = Acidobacterium HPPD Event 2, 3.125 g/ha
[16] = Acidobacterium HPPD Event 2, 6.25 g/ha
[17] = Algoriphagus HPPD Event 1, 3.125 g/ha
[18] = Algoriphagus HPPD Event 1, 6.25 g/ha
[19] = Algoriphagus HPPD Event 2, 3.125 g/ha
[20] = Algoriphagus HPPD Event 2, 6.25 g/ha
[21] = Scenedesmus HPPD Event 1, 12.5 g/ha
[22] = Scenedesmus HPPD Event 2, 12.5 g/ha
[23] = Acidobacterium HPPD Event 1, 12.5 g/ha
[24] = Acidobacterium HPPD Event 2, 12.5 g/ha
[25] = Algoriphagus HPPD Event 1, 12.5 g/ha
[26] = Algoriphagus HPPD Event 2, 12.5 g/ha

In the case of `CS(=O)(=O)c1ccc(C(=O)C2C(=O)CCCC2=O)c([N+](=O)[O-])c1` [Inhibitor 2, 2-(4-methylsulfonyl-2-nitro-benzoyl)cyclohexane-1,3-dione], the “Injury evaluation, scale 0-100%” value ([1]; Scenedesmus HPPD Event 1, 1.56 g/ha) is reported as 10%, the “Injury evaluation, scale 0-100%” value [1, 9] is reported as 13% and the “Injury evaluation, scale 0-100%” value [1, 10] is reported as 18%. The “Injury evaluation, scale 0-100%” value ([1]; Scenedesmus HPPD Event 2, 1.56 g/ha) was 23%, the “Injury evaluation, scale 0-100%” value [1, 11] was 38% and the “Injury evaluation, scale 0-100%” value [1, 12] was 38%. For the same molecule, the “tolerance compared to the WT” value ([1]; at the highest application rate) was 5 fold, the “tolerance of transgenic plants (in words)” value (shortened to “tolerance … (in words)”) [1] was “outstanding tolerance” and the “Injury evaluation, scale 0-100%” value ([2]; Acidobacterium HPPD Event 1, 1.56 g/ha) was 8%. The “Injury evaluation, scale 0-100%” value [2, 13] was 8%, the “Injury evaluation, scale 0-100%” value [2, 14] was 45% and the “Injury evaluation, scale 0-100%” value ([2]; Acidobacterium HPPD Event 2, 1.56 g/ha) was 10%. The “Injury evaluation, scale 0-100%” value [2, 15] was 33%, the “Injury evaluation, scale 0-100%” value [2, 16] was 55% and the leaf damage ([2]; at the lowest application rate, both events) was 8-10%. The “tolerance … (in words)” value [2] was “significantly increased tolerance”, the “Injury evaluation, scale 0-100%” value ([3]; Algoriphagus HPPD Event 1, 1.56 g/ha) was 48% and the “Injury evaluation, scale 0-100%” value [3, 17] was 53%. For the same molecule, the “Injury evaluation, scale 0-100%” value [3, 18] was 65%, the “Injury evaluation, scale 0-100%” value ([3]; Algoriphagus HPPD Event 2, 1.56 g/ha) was 45% and the “Injury evaluation, scale 0-100%” value [3, 19] was 60%. The “Injury evaluation, scale 0-100%” value [3, 20] was 75%, the “TI (normalized tolerance index)” value [4] was 0.2 and the “TI (normalized tolerance index)” value [5] was 0.1. The “TI (normalized tolerance index)” value [6] was 0.6, the “TI (normalized tolerance index)” value [7] was 0.6 and the “Injury evaluation, scale 0-100%” value ([8]; 1.56 g/ha) was 83%. For the same molecule, the “Injury evaluation, scale 0-100%” value ([8]; 3.125 g/ha) was 93% and the “Injury evaluation, scale 0-100%” value ([8]; 6.25 g/ha) was 93%.

With `CN(c1c(Cl)ccc(C2=C(O)c3ncccc3C(C)(C)S2(=O)=O)c1Cl)S(C)(=O)=O` [Inhibitor 4, N-[2,6-dichloro-3-(8-hydroxy-5,5-dimethyl-6,6-dioxo-thiopyrano[4,3-b]pyridin-7-yl)phenyl]-N-methyl-methanesulfonamide] the “Injury evaluation, scale 0-100%” value [1, 21] was 13%, the “Injury evaluation, scale 0-100%” value ([1]; Scenedesmus HPPD Event 1, 25 g/ha) was 18% and the “Injury evaluation, scale 0-100%” value ([1]; Scenedesmus HPPD Event 1, 50 g/ha) was 65%. The “Injury evaluation, scale 0-100%” value [1, 22] was 20%, the “Injury evaluation, scale 0-100%” value ([1]; Scenedesmus HPPD Event 2, 25 g/ha) was 25% and the “Injury evaluation, scale 0-100%” value ([1]; Scenedesmus HPPD Event 2, 50 g/ha) was 25%. The “tolerance … (in words)” value [1] was “outstanding tolerance”, the “Injury evaluation, scale 0-100%” value [2, 23] was 20% and the “Injury evaluation, scale 0-100%” value ([2]; Acidobacterium HPPD Event 1, 25 g/ha) was 25%. For the same molecule, the “Injury evaluation, scale 0-100%” value ([2]; Acidobacterium HPPD Event 1, 50 g/ha) was 35%, the “Injury evaluation, scale 0-100%” value [2, 24] was 23% and the “Injury evaluation, scale 0-100%” value ([2]; Acidobacterium HPPD Event 2, 25 g/ha) was 25%. The “Injury evaluation, scale 0-100%” value ([2]; Acidobacterium HPPD Event 2, 50 g/ha) was 60%, the leaf material harmed ([2]; after application of 12.5 g/ha, both events) was 20-23% and the “tolerance … (in words)” value [2] was “not severly injured”. The “Injury evaluation, scale 0-100%” value [3, 25] was 40%, the “Injury evaluation, scale 0-100%” value ([3]; Algoriphagus HPPD Event 1, 25 g/ha) was 45% and the “Injury evaluation, scale 0-100%” value ([3]; Algoriphagus HPPD Event 1, 50 g/ha) was 50%. The “Injury evaluation, scale 0-100%” value [3, 26] was 33%, the “Injury evaluation, scale 0-100%” value ([3]; Algoriphagus HPPD Event 2, 25 g/ha) was 33% and the “Injury evaluation, scale 0-100%” value ([3]; Algoriphagus HPPD Event 2, 50 g/ha) was 60%. The “TI (normalized tolerance index)” value [4] was 112.0, the “TI (normalized tolerance index)” value [5] was 16.4 and the “TI (normalized tolerance index)” value [6] was 64 and 64.3. The “TI (normalized tolerance index)” value [7] was 13.5, the “Injury evaluation, scale 0-100%” value ([8]; 12.5 g/ha) was 75% and the “Injury evaluation, scale 0-100%” value ([8]; 25 g/ha) was 83%. For the same molecule, the “Injury evaluation, scale 0-100%” value ([8]; 50 g/ha) was 85%.

In the case of `CSc1c(Cl)cc(F)c(C(=O)Nc2nnnn2C)c1Cl` [Inhibitor 11, 2,4-dichloro-6-fluoro-3-methylsulfanyl-N-(1-methyltetrazol-5-yl)benzamide], the “Injury evaluation, scale 0-100%” value [1, 9] is reported as 13%, the “Injury evaluation, scale 0-100%” value [1, 10] is reported as 15% and the “Injury evaluation, scale 0-100%” value [1, 21] is reported as 33%. For the same molecule, the “Injury evaluation, scale 0-100%” value [1, 11] was 13%, the “Injury evaluation, scale 0-100%” value [1, 12] was 13% and the “Injury evaluation, scale 0-100%” value [1, 22] was 15%. The “tolerance … (in words)” value [1] was “outstanding tolerance”, the “Injury evaluation, scale 0-100%” value [2, 13] was 53% and the “Injury evaluation, scale 0-100%” value [2, 14] was 65%. For the same molecule, the “Injury evaluation, scale 0-100%” value [2, 23] was 98%, the “Injury evaluation, scale 0-100%” value [2, 15] was 58% and the “Injury evaluation, scale 0-100%” value [2, 16] was 93%. The “Injury evaluation, scale 0-100%” value [2, 24] was 98%, the “Injury evaluation, scale 0-100%” value [3, 17] was 55% and the “Injury evaluation, scale 0-100%” value [3, 18] was 73%. For the same molecule, the “Injury evaluation, scale 0-100%” value [3, 25] was 98%, the “Injury evaluation, scale 0-100%” value [3, 19] was 68% and the “Injury evaluation, scale 0-100%” value [3, 20] was 90%. The “Injury evaluation, scale 0-100%” value [3, 26] was 97%, the “TI (normalized tolerance index)” value [4] was 0.1 and the “TI (normalized tolerance index)” value [5] was 0. For the same molecule, the “TI (normalized tolerance index)” value [6] was 0.1, the “TI (normalized tolerance index)” value [7] was 0.2 and the “Injury evaluation, scale 0-100%” value ([8]; 3.125 g/ha) was 70%. The “Injury evaluation, scale 0-100%” value ([8]; 12.5 g/ha) was 83%.
